In ChEMBL document CHEMBL1128971, “Pyrazolo[3,4-d]pyrimidines: C4, C6 substitution leads to adenosine A1 receptor selectivity” (Bioorg Med Chem Lett, 1996):

Legend:
[1] = biological target: Adenosine receptors; A1 & A2a (Rattus norvegicus) (UniProt P25099+P30543); assay: Ratio of binding affinity against adenosine A1 receptor and adenosine A2a receptor; assay type: protein assay
Adenosine receptor A2a = Adenosine receptor A2a (Rattus norvegicus, UniProt P30543); assay: Inhibition of A2a agonist [3H]-CGS- 21680 binding to rat striatal membranes; assay type: cell membranes, Membrane
Adenosine receptor A1 = biological target: T1, Adenosine receptor A1 (Rattus norvegicus, UniProt P25099); assay: Inhibition of A1 agonist (R)-[3H]N 6-(phenylisopropyl) adenosine binding to membranes from rat whole brain
T1 sequence (P25099 whole entry): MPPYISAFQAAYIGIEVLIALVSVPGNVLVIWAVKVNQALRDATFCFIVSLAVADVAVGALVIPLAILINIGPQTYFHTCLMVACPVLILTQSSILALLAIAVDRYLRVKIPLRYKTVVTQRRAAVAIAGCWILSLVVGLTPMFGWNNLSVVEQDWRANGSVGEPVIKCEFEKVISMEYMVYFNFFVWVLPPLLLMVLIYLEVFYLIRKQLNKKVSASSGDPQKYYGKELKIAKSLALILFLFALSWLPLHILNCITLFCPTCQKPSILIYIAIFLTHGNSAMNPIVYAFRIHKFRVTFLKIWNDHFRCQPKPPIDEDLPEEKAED

Chain of Adenosine receptors; A1 & A2a (Rattus norvegicus) (P30543 whole entry, looked up, one chain of several): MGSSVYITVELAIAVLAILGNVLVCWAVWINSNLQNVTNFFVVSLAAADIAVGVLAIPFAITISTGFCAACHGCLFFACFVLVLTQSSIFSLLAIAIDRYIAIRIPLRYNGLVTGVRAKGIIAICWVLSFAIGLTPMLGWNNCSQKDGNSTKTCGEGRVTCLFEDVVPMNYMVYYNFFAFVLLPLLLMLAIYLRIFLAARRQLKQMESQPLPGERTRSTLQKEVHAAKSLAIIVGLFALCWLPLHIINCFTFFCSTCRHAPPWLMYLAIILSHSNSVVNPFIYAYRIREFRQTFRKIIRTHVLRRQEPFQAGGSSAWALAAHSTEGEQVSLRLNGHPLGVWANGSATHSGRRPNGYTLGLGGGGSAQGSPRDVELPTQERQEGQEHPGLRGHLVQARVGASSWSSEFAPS
Chain of Adenosine receptor A2a (P30543 whole entry): as the sequence (P30543 whole entry, looked up, one chain of several) above

Ratio [1] | Ki (Adenosine receptor A2a) | Ki (Adenosine receptor A1) | SMILES
331 |  |  | CCCCC(Sc1nc(NC)c2cnn(-c3ccccc3)c2n1)C(N)=O (centres undefined)
13000 | > 38500 nM | 29.5 nM | CCCSc1nc(SC(CC)C(N)=O)nc2c1cnn2-c1ccccc1 (centres undefined)
